A short description of data set [1]: PBMC cytotoxicity assay. The data set is classed as cell-based. The settings on record: human, cryopreserved PBMCs. As to the method:
Compounds were tested in a high-throughput 384-well assay format for cytotoxicity in cryopreserved human PBMCs. Compounds were serially diluted (1:3) in 100% DMSO in 384-well plates in quadruplicate. An acoustic dispenser was used to transfer 310 nL of compound into assay plates. DMSO and 2 mM Puromycin were included as negative and positive controls respectively. Cells were diluted in media (RPMI+10% FBS+1% PSG+10 mM Hepes+1% Pyruvate+0.1% BMe) to 72K cells/mL and allowed to rest for 4 hours in an incubator at 37° C. and 5% CO2 before plating into prespotted assay plates at 70 uL/well. After 5 days, 25 μL of Cell Titer Glo was added to the assay plates. […] CC50 values were calculated in Accord (on-line tool) using a one-site dose-response model to generate sigmoidal curve fits.

Data set [2] is described as follows: in vitro. Particulars: plasma, 37° C., up to 4 h. The data set is classed as in vitro ADME. As to the method:
For plasma stability, the compounds were incubated at 2 μM in cynomolgus monkey or human plasma for up to 4 h at 37° C. At desired time points, an aliquot from the incubation was quenched by addition of 9 volumes of 100% acetonitrile supplemented with internal standard. Following the last collection, samples were centrifuged at 3000 g for 30 min and supernatants were transferred to a new plate containing an equal volume of water for analysis by liquid chromatography coupled to triple quadrupole mass spectrometry (LC-MS/MS). Data (analyte to internal standard peak area ratio) were plotted on a semi log scale and fitted using an exponential fit. The half-life (T1/2) was determined assuming first order kinetics.

Data set [3] deals with HRV16. The data set is described as follows: HRV16 HeLa EC50. The data set is classed as cell-based, human rhinovirus. Particulars: for pEC50: Human rhinovirus sp., HRV16, H1-HeLa cells, 96 h, 33° C. As to the method: H1-HeLa cells, cultured in complete DMEM medium containing 10% heat-inactivated FBS and 1% Penicillin/Streptomycin, were seeded in 96 well plates at 3000 cells/well one day prior to compound dosing and infection. The antiviral activity of each compound was measured in triplicate. Compounds were added directly to the cell cultures in serial 3-fold dilutions using the HP300 digital dispenser (Hewlett Packard, Palo Alto, CA) immediately prior to infection. The plates were transferred to BSL-2 containment and the appropriate dilution of virus stock, previously determined by titration and prepared in cell culture media, was added to test plates containing cells and serially diluted compounds. Each plate included 6 wells of infected untreated cells and 6 wells of uninfected cells that served as 0% and 100% virus inhibition control, respectively. Following the infection, test plates were incubated for 96 h in a tissue culture incubator set to 33° C./5% CO2. Following incubation, the H1-HeLa cells were removed from incubation and allowed to equilibrate to 25° C. Cell viability was determined by removing 100 μL of culture medium and adding 100 μL of Cell-Titer Glo viability reagent. The mixtures were incubated on a shaker for 10 minutes at 25° C., and the luminescence signal was quantified on an Envision luminescence plate reader.

Data set [4] deals with RSV A2. The data set is described as follows: RSV NHBE EC50, RSV A2 antiviral assay. The settings on record: for pEC50: human respiratory syncytial virus, 96 h, RSV A2 in NHBE cells, 4 days. The data set is classed as cell-based. As to the method:
Normal human bronchial epithelial (NHBE) cells were purchased from Lonza (Walkersville, MD, Cat #CC-2540) and cultured in Bronchial Epithelial Growth Media (BEGM) (Lonza, Walkersville, MD, Cat #CC-3170). The cells were passaged 1-2 times per week to maintain <80% confluency. The NHBE cells were discarded after 6 passages in culture.
To conduct the RSV A2 antiviral assay, NHBE cells were plated in 96-well plates at a density of 7,500 cells per well in BEGM and allowed to attach overnight at 37° C. Following attachment, 100 μL of cell culture media was removed and 3-fold serially diluted compound was added using a Hewlett-Packard D300 Digital Dispenser. The final concentration of DMSO was normalized to 0.05%. Following compound addition, the NHBE cells were infected by the addition of 100 μL of RSV A2 at a titer of 1×10^4.5 tissue culture infectious doses/mL in BEGM and then incubated at 37° C. for 4 days. The NHBE cells were then allowed to equilibrate to 25° C. and cell viability was determined by removing 100 μL of culture medium and adding 100 μL of Cell-Titer Glo viability reagent. The mixtures were incubated for 10 minutes at 25° C., and the luminescence signal was quantified on an Envision luminescence plate reader.

Data set [5] can be described thus: NRVM neonatal rat cardiomyocyte cytotoxicity assay. It counts as cell-based. The settings on record: freshly harvested neonatal cardiomyocytes (NRVM). As to the method: Compounds were tested in a high-throughput 384-well assay format for cytotoxicity against freshly harvested neonatal rat cardiomyocytes (NRVM). Cells were diluted in media (DMEM+10% FBS+1% PSG+1% NEAA) to 25,000 cells/mL, plated at 90 ul per well in 384 well cell assay plates and incubated overnight at 37° C. and 5% CO2 before compound addition. Compounds were prepared by serial dilution (1:3) in 100% DMSO in 384-well plates in quadruplicate. 400 nL/well of compound were transferred into cell assay plates via Biocel (Agilent Technologies). DMSO and 2 mM Puromycin were included as negative and positive controls respectively. After 5 days, plates are washed 1× w/ 100 ul/well PBS with Biotek plate washer, and 20 μL of Cell Titer Glo was added to each well. Plates were incubated 10 min and read on EnVision reader (Perkin Elmer). […] CC50 values were calculated in Accord (on-line tool) using a one-site dose-response model to generate sigmoidal curve fits.

Data set [6] can be described thus: NHBE cytotoxicity assay. It counts as cell-based. The settings on record: human, normal bronchial epithelial (NHBE) cells. As to the method:
Normal human bronchial epithelial (NHBE) cells were purchased from Lonza (Walkersville, MD, Cat #CC-2540) and cultured in Bronchial Epithelial Growth Media (BEGM) (Lonza, Walkersville, MD, Cat #CC-3170). The cells were passaged 1-2 times per week to maintain <80% confluency per manufacturer's protocol. The NHBE cells were discarded after 5 passages in culture.
Following attachment, 3-fold serially diluted compound was added using a Hewlett-Packard D300 Digital Dispenser (Hewlett Packard, Palo Alto, CA) in triplicate. The final concentration of DMSO was normalized to 1.0%. Following compound addition, NHBE or SAEC cells were incubated at 37° C. for 5 days. The NHBE or SAEC cells were then allowed to equilibrate to 25° C. and cell viability was determined by removing 100 μL of culture medium and adding 100 μL of Cell-Titer Glo viability reagent (Promega, Madison, WI). The mixtures were incubated for 10 minutes at 25° C., and the luminescence signal was quantified on an Envision luminescence plate reader (PerkinElmer, Waltham, MA). Percent viability values were determined by normalization to 1.0% DMSO-only control wells with background luminescent signal subtracted out.

The mark [7] stands for this setting: human, read-out: Hum Plasma t1/2.
Setting [8] is: cynomolgus monkey, read-out: Cyno Plasma t1/2.

pEC50: −log10 of the molar value. Where two headings read alike, the source gives them in different places.

In the case of `CCOC(=O)[C@H](C)NP(=O)(OC[C@@]1(C#N)O[C@@H](c2ccc3c(N)ncnn23)[C@H](O)[C@@H]1O)Oc1ccccc1` (stereo partly drawn) [Compound 1, reference compound], the CC50 at 5 days is 18.2 µM in data set [1], over 44.4 µM in data set [5] and over 50 µM in data set [6]. Besides, the half-life at 2 μM in data set [2] (setting [7]) turned out to be 11.1 h. In addition, the pEC50 in data set [3] is 6.02; in data set [4] it was 6.26.

In the case of `CCC(CC)COC(=O)[C@H](C)NP(=O)(OC[C@@]1(C#N)O[C@@H](c2ccc3c(N)ncnn23)[C@H](O)[C@@H]1O)Oc1ccccc1` (stereo partly drawn) [Compound 2, reference compound], the CC50 at 5 days is 4.65 µM in data set [1], over 44.4 µM in data set [5] and 29.1 µM in data set [6]. Further, the half-life at 2 μM was found to be 4.82 h in data set [2] (setting [8]) and 2.53 h in data set [2] (setting [7]). Also, the figures for the pEC50 in data set [3] and in data set [4] were 6.79 and 7.12, respectively.

Take `CCC(CC)COC(=O)[C@H](C)N[P@](=O)(OC[C@@]1(C#N)O[C@@H](c2ccc3c(N)ncnn23)[C@H](O)[C@@H]1O)Oc1ccccc1` [Compound 6, 2-ethylbutyl ((S)-(((2R,3S,4R,5S)-5-(4-aminopyrrolo[2,1-f][1,2,4]triazin-7-yl)-2-cyano-3,4-dihydroxytetrahydrofuran-2-yl)methoxy)(phenoxy)phosphoryl)alaninate]: the CC50 at 5 days came out at 4.79 µM in data set [1], 8.09 µM in data set [5] and 24.4 µM in data set [6]. The figures for the half-life at 2 μM in data set [2] (setting [8]) and in data set [2] (setting [7]) were 4.28 h and 2.18 h, respectively. Further, the “times more potent than compound 7, HRV16 HeLa” value in data set [3] (EC50 ratio vs compound 7) came out at 1.4 times. The pEC50 in data set [3] was 6.87; in data set [4], 6.90. In data set [4] (EC50 ratio vs compound 7), the “times as potent as compound 7, RSV NHBE” value is 0.7 times.

Turning to `C[C@H](N[P@](=O)(OC[C@@]1(C#N)O[C@@H](c2ccc3c(N)ncnn23)[C@H](O)[C@@H]1O)Oc1ccccc1)C(=O)OC1CCCCC1` [Formula I, cyclohexyl ((S)-(((2R,3S,4R,5S)-5-(4-aminopyrrolo[2,1-f][1,2,4]triazin-7-yl)-2-cyano-3,4-dihydroxytetrahydrofuran-2-yl)methoxy)(phenoxy)phosphoryl)-L-alaninate], the values for the CC50 at 5 days in data set [1], in data set [5] and in data set [6] were over 31.6 µM, 27.7 µM and over 40.1 µM, respectively. The half-life at 2 μM was 7.4 h in data set [2] (setting [8]) and 8.05 h in data set [2] (setting [7]). Further, in data set [3] (EC50 ratio vs Formula Ib), the “times more potent than the compound of Formula Ib, HRV16 HeLa” value is listed as 2.9 times. The “times more potent relative to compound 1, HRV16 HeLa” value in data set [3] (EC50 ratio vs compound 1) is reported as “about 4.2 times”. Moreover, the “times more potent relative to compound 3, HRV16 HeLa” value in data set [3] (EC50 ratio vs compound 3) is given as “about 6.2 times”. Besides, the “times more potent relative to compound 4, HRV16 Hela” value in data set [3] (EC50 ratio vs compound 4) is listed as “about 4.3 times”. Besides, in data set [3] (EC50 ratio vs compound 5), the “times more potent relative to compound 5, HRV16 HeLa” value is “about 13.8 times”. Also, the pEC50 was 6.64 in data set [3] and 6.91 in data set [4]. Besides, the “more potent than the compound of Formula Ib, RSV NHBE” value in data set [4] (EC50 ratio vs Formula Ib) is 5.1. Further, the “more potent relative to compound 1, RSV NHBE” value in data set [4] (EC50 ratio vs compound 1) is recorded as about 4.4. Besides, the “times more potent relative to compound 3, RSV NHBE” value in data set [4] (EC50 ratio vs compound 3) was “about 9.3 times”. In addition, the “times more potent relative to compound 4, RSV NHBE” value in data set [4] (EC50 ratio vs compound 4) is listed as “about 7.1 times”. Moreover, in data set [4] (EC50 ratio vs compound 5), the “times more potent relative to compound 5, RSV NHBE” value is listed as “about 10.0 times”.

(Values after patent publication US20250034186A1, “ANTIVIRAL COMPOUNDS” (priority 2020, published 2025).)
